Experimental data taken from patent US9849104B2 (Gemphire Therapuetics Inc., priority 2015, dated 2017).

Key:
CYP2C9 = target: T1, CYP2C9 (Homo sapiens, UniProt P11712); test: Inhibition of CYP2C9 (7-hydroxylation of (S)-warfarin) in human liver microsomes; type: in vitro ADME; conditions: probe (S)-warfarin (7-hydroxylation), 4 μM, read-out: inhibitory activity toward CYP2C9
T1 construct: Human livers, HLM141, HLM143, and HLM144 were selected from the University of Washington Human Liver Bank for this study; Microsomes were prepared; tissue University of Washington Human Liver Bank HLM141, HLM143, HLM144; host or cells: human liver microsomes
Method: (§1) Human livers, HLM141, HLM143, and HLM144 were selected from the University of Washington Human Liver Bank for this study. […] The seven isoforms and the metabolic pathway of each of the probes used to monitor specific isoform activity are listed below.
CYP2C9: The 7-hydroxylation of (S)-warfarin (4 μM). The reaction is monitored by quantitative GC/MS using 7-hydroxywarfarin-(d5-phenyl) as the internal standard.

[1] = tested on: CYP1A2, CYP2A6, CYP2C9, CYP2C19, CYP2D6, CYP2E1, CYP3A4; test: in vitro; conditions: human, microsomes
Source text: as §1, with “study. […] The actual concentrations used for each of the other probes are specified below.” for “study.”

T1 sequence (P11712 whole entry): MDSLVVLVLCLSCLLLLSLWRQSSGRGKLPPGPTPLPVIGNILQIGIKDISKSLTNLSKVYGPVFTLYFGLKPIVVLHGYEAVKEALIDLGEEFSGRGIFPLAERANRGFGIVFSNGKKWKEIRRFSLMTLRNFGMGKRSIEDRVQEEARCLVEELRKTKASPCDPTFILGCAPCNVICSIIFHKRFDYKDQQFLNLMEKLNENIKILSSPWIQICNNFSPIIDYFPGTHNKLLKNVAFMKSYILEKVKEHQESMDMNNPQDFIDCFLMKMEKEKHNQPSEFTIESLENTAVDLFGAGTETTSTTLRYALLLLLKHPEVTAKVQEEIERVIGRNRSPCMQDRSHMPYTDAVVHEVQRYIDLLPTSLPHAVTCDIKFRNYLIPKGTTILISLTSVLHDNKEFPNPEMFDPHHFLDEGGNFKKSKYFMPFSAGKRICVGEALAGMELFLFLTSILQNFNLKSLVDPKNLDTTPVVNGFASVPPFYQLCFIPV

## CC(C)(CCCCOCCCCC(C)(C)C(=O)O)C(=O)O [Gemcabene, 6,6′-oxybis(2,2-dimethylhexanoic acid)]
CYP2C9
  inhibition at 1500 µM: 10 to 20%
[1]
  IC50: > 454 µg/mL
